Results from ChEMBL document CHEMBL3885881, “DrugMatrix”.

Organism: Rattus norvegicus
Assay: DrugMatrix - Regimen: Daily Repeat
Type: toxicity, organism-based, Sprague-Dawley
Set-up: regimen Daily Repeat, gender Male, age 6-8 weeks
Settings: in vivo, po, route oral GAVAGE, vehicle 100 % WATER; for ABSOLUTE BASOPHIL / ABSOLUTE EOSINOPHIL / ABSOLUTE LYMPHOCYTE / ABSOLUTE MONOCYTE / ABSOLUTE SEGMENTED NEUTROPHIL / BASOPHIL / EOSINOPHIL / ERYTHROCYTE COUNT / HEMATOCRIT / HEMOGLOBIN / LEUKOCYTE COUNT / LYMPHOCYTE / MEAN CORPUSCULAR HEMOGLOBIN / MEAN CORPUSCULAR HEMOGLOBIN CONCENTRATION / MEAN CORPUSCULAR VOLUME / MONOCYTE / NEUTROPHIL / NUCLEATED RED BLOOD CELLS / PLATELET COUNT: tissue Blood; for ALANINE AMINOTRANSFERASE / ALBUMIN / ALKALINE PHOSPHATASE / ASPARTATE AMINOTRANSFERASE / BLOOD UREA NITROGEN / CARBON DIOXIDE / CHLORIDE / CHOLESTEROL / CREATINE PHOSPHOKINASE / CREATININE / GLUCOSE / LACTATE DEHYDROGENASE / LIPASE / PHOSPHORUS / POTASSIUM / SODIUM / TOTAL BILIRUBIN / TOTAL PROTEIN / URIC ACID: tissue Plasma
[1] = 13 mg/kg, 72 h, dose level Low, time 3 day
[2] = 13 mg/kg, 120 h, dose level Low, time 5 day
[3] = 300 mg/kg, 72 h, dose level High, time 3 day
[4] = 300 mg/kg, 120 h, dose level High, time 5 day

OC(CCCN1CCCCC1)(c1ccccc1)c1ccccc1 [DIPHENIDOL]
ABSOLUTE BASOPHIL [1]: 0 CELLS/uL
ABSOLUTE EOSINOPHIL [1]: 54.67 CELLS/uL
ABSOLUTE LYMPHOCYTE [1]: 13934 CELLS/uL
ABSOLUTE MONOCYTE [1]: 204 CELLS/uL
ABSOLUTE SEGMENTED NEUTROPHIL [1]: 740.67 CELLS/uL
BASOPHIL [1]: 0%
EOSINOPHIL [1]: 0.33%
ERYTHROCYTE COUNT [1]: 5.67 x10E6/uL
HEMATOCRIT [1]: 36.33%
HEMOGLOBIN [1]: 14.43 G/DL
LEUKOCYTE COUNT [1]: 14.93 x10E3/uL
LYMPHOCYTE [1]: 93.33%
MEAN CORPUSCULAR HEMOGLOBIN [1]: 25.47 pg
MEAN CORPUSCULAR HEMOGLOBIN CONCENTRATION [1]: 39.7 G/DL
MEAN CORPUSCULAR VOLUME [1]: 64.07 fL
MONOCYTE [1]: 1.33%
NEUTROPHIL [1]: 5%
NUCLEATED RED BLOOD CELLS [1]: 0 /100WBC
PLATELET COUNT [1]: 1276.67 x10E3/uL
ALANINE AMINOTRANSFERASE [1]: 58.33 u/L
ALBUMIN [1]: 4.23 G/DL
ALKALINE PHOSPHATASE [1]: 408.67 u/L
ASPARTATE AMINOTRANSFERASE [1]: 99.33 u/L
BLOOD UREA NITROGEN [1]: 17.33 mg/dL
CARBON DIOXIDE [1]: 25 mmol/L
CHLORIDE [1]: 102.33 MEQ/L
CHOLESTEROL [1]: 72 mg/dL
CREATINE PHOSPHOKINASE [1]: 574 u/L
CREATININE [1]: 0.29 mg/dL
GLUCOSE [1]: 169.33 mg/dL
LACTATE DEHYDROGENASE [1]: 402.67 u/L
LIPASE [1]: 9.67 u/L
PHOSPHORUS [1]: 13.97 mg/dL
POTASSIUM [1]: 7.15 MEQ/L
SODIUM [1]: 146.43 MEQ/L
TOTAL BILIRUBIN [1]: 0.2 mg/dL
TOTAL PROTEIN [1]: 5.77 G/DL
URIC ACID [1]: 3.3 mg/dL
ABSOLUTE BASOPHIL [2]: 0 CELLS/uL
ABSOLUTE EOSINOPHIL [2]: 69 CELLS/uL
ABSOLUTE LYMPHOCYTE [2]: 13769 CELLS/uL
ABSOLUTE MONOCYTE [2]: 0 CELLS/uL
ABSOLUTE SEGMENTED NEUTROPHIL [2]: 1595.33 CELLS/uL
BASOPHIL [2]: 0%
EOSINOPHIL [2]: 0.33%
ERYTHROCYTE COUNT [2]: 5.45 x10E6/uL
HEMATOCRIT [2]: 34.73%
HEMOGLOBIN [2]: 13.73 G/DL
LEUKOCYTE COUNT [2]: 15.43 x10E3/uL
LYMPHOCYTE [2]: 89.67%
MEAN CORPUSCULAR HEMOGLOBIN [2]: 25.2 pg
MEAN CORPUSCULAR HEMOGLOBIN CONCENTRATION [2]: 39.53 G/DL
MEAN CORPUSCULAR VOLUME [2]: 63.8 fL
MONOCYTE [2]: 0%
NEUTROPHIL [2]: 10%
NUCLEATED RED BLOOD CELLS [2]: 0 /100WBC
PLATELET COUNT [2]: 1177.33 x10E3/uL
ALANINE AMINOTRANSFERASE [2]: 49 u/L
ALBUMIN [2]: 4.23 G/DL
ALKALINE PHOSPHATASE [2]: 358.67 u/L
ASPARTATE AMINOTRANSFERASE [2]: 78 u/L
BLOOD UREA NITROGEN [2]: 18.67 mg/dL
CARBON DIOXIDE [2]: 28 mmol/L
CHLORIDE [2]: 101.67 MEQ/L
CHOLESTEROL [2]: 68.67 mg/dL
CREATINE PHOSPHOKINASE [2]: 194.33 u/L
CREATININE [2]: 0.17 mg/dL
GLUCOSE [2]: 148.33 mg/dL
LACTATE DEHYDROGENASE [2]: 83.67 u/L
LIPASE [2]: 9 u/L
PHOSPHORUS [2]: 12.13 mg/dL
POTASSIUM [2]: 6.32 MEQ/L
SODIUM [2]: 146.57 MEQ/L
TOTAL BILIRUBIN [2]: 0.17 mg/dL
TOTAL PROTEIN [2]: 5.97 G/DL
URIC ACID [2]: 1.13 mg/dL
ABSOLUTE BASOPHIL [3]: 0 CELLS/uL
ABSOLUTE EOSINOPHIL [3]: 58 CELLS/uL
ABSOLUTE LYMPHOCYTE [3]: 16577.33 CELLS/uL
ABSOLUTE MONOCYTE [3]: 58 CELLS/uL
ABSOLUTE SEGMENTED NEUTROPHIL [3]: 1540 CELLS/uL
BASOPHIL [3]: 0%
EOSINOPHIL [3]: 0.33%
ERYTHROCYTE COUNT [3]: 5.58 x10E6/uL
HEMATOCRIT [3]: 35.57%
HEMOGLOBIN [3]: 14.3 G/DL
LEUKOCYTE COUNT [3]: 18.23 x10E3/uL
LYMPHOCYTE [3]: 91%
MEAN CORPUSCULAR HEMOGLOBIN [3]: 25.63 pg
MEAN CORPUSCULAR HEMOGLOBIN CONCENTRATION [3]: 40.17 G/DL
MEAN CORPUSCULAR VOLUME [3]: 63.8 fL
MONOCYTE [3]: 0.33%
NEUTROPHIL [3]: 8.33%
NUCLEATED RED BLOOD CELLS [3]: 0 /100WBC
PLATELET COUNT [3]: 1352.67 x10E3/uL
ALANINE AMINOTRANSFERASE [3]: 52 u/L
ALBUMIN [3]: 4.3 G/DL
ALKALINE PHOSPHATASE [3]: 318.33 u/L
ASPARTATE AMINOTRANSFERASE [3]: 74 u/L
BLOOD UREA NITROGEN [3]: 15.67 mg/dL
CARBON DIOXIDE [3]: 24.67 mmol/L
CHLORIDE [3]: 103.33 MEQ/L
CHOLESTEROL [3]: 80.33 mg/dL
CREATINE PHOSPHOKINASE [3]: 184 u/L
CREATININE [3]: 0.24 mg/dL
GLUCOSE [3]: 156.67 mg/dL
LACTATE DEHYDROGENASE [3]: 139.67 u/L
LIPASE [3]: 9 u/L
PHOSPHORUS [3]: 13.97 mg/dL
POTASSIUM [3]: 7.22 MEQ/L
SODIUM [3]: 146.87 MEQ/L
TOTAL BILIRUBIN [3]: 0.13 mg/dL
TOTAL PROTEIN [3]: 6.27 G/DL
URIC ACID [3]: 1.77 mg/dL
ABSOLUTE BASOPHIL [4]: 0 CELLS/uL
ABSOLUTE EOSINOPHIL [4]: 44 CELLS/uL
ABSOLUTE LYMPHOCYTE [4]: 14983.33 CELLS/uL
ABSOLUTE MONOCYTE [4]: 56.33 CELLS/uL
ABSOLUTE SEGMENTED NEUTROPHIL [4]: 783 CELLS/uL
BASOPHIL [4]: 0%
EOSINOPHIL [4]: 0.33%
ERYTHROCYTE COUNT [4]: 5.89 x10E6/uL
HEMATOCRIT [4]: 35.8%
HEMOGLOBIN [4]: 14.47 G/DL
LEUKOCYTE COUNT [4]: 15.87 x10E3/uL
LYMPHOCYTE [4]: 94.33%
MEAN CORPUSCULAR HEMOGLOBIN [4]: 24.63 pg
MEAN CORPUSCULAR HEMOGLOBIN CONCENTRATION [4]: 40.43 G/DL
MEAN CORPUSCULAR VOLUME [4]: 60.97 fL
MONOCYTE [4]: 0.33%
NEUTROPHIL [4]: 5%
NUCLEATED RED BLOOD CELLS [4]: 0.33 /100WBC
PLATELET COUNT [4]: 1311 x10E3/uL
ALANINE AMINOTRANSFERASE [4]: 67.67 u/L
ALBUMIN [4]: 4.47 G/DL
ALKALINE PHOSPHATASE [4]: 383 u/L
ASPARTATE AMINOTRANSFERASE [4]: 106.33 u/L
BLOOD UREA NITROGEN [4]: 14.33 mg/dL
CARBON DIOXIDE [4]: 23 mmol/L
CHLORIDE [4]: 101 MEQ/L
CHOLESTEROL [4]: 53.67 mg/dL
CREATINE PHOSPHOKINASE [4]: 291 u/L
CREATININE [4]: 0.27 mg/dL
GLUCOSE [4]: 161 mg/dL
LACTATE DEHYDROGENASE [4]: 445 u/L
LIPASE [4]: 11 u/L
PHOSPHORUS [4]: 14.9 mg/dL
POTASSIUM [4]: 6.65 MEQ/L
SODIUM [4]: 146.5 MEQ/L
TOTAL BILIRUBIN [4]: 0.1 mg/dL
TOTAL PROTEIN [4]: 6.2 G/DL
URIC ACID [4]: 2.83 mg/dL
